Broadly, the melting point is the temperature of the solid-liquid transition.

This passage reports minimal effective concentration and melting point results from US6825350B2, “Sulfonamide and sulfamide substituted imidazoquinolines and methods for the treatment of periodontal disease using these and other immune response modifiers” (3M Innovative Properties Company, priority 1999, dated 2004).

The subject of data set [1] is tumor necrosis factor (α). The data set can be described thus: Cytokine induction in human cells: tumor necrosis factor (α) by ELISA. It counts as cell-based. The note with it: Homo sapiens, PBMC, human PBMCs, 18 to 24 hours incubation, ELISA of culture supernatant; read-out: Lowest Effective Concentration (μM) Tumor Necrosis Factor. Background: ELISA stands for enzyme-linked immunosorbent assay.

The next data set relates to interferon (α). Nature of the data set: Cytokine induction in human cells: interferon (α) by ELISA. It counts as cell-based. The note with it: human PBMCs, 18 to 24 hours incubation, ELISA of culture supernatant, read-out: Lowest Effective Concentration (μM) Interferon.

Counter-ions that a name gives are not always drawn. Like-named read-outs stand apart in the source and are kept apart here.

On to `CCCCc1nc2c(N)nc3ccccc3c2n1CCCCNS(=O)(=O)c1cccc2cnccc12` [Example 11, N^5-[4-(4-Amino-2-butyl-1H-imidazo[4,5-c]quinolin-1-yl)butyl]-5-isoquinolinesulfonamide], for which the melting point is 96 °C (dec.). Besides, the minimal effective concentration in data set [1] is 1.11 µM. Also, the minimal effective concentration in the data set with interferon (α) (Homo sapiens, PBMC) turned out to be 0.01 µM.

As to `CCCCc1nc2c(N)nc3ccccc3c2n1CCCCNS(=O)(=O)c1cccc(N)c1` (as salt: hydrochloride), the melting point was 110.2 °C (dec.).

Consider `CN(C)c1cccc2c(S(=O)(=O)NCCCCn3cnc4c(N)nc5ccccc5c43)cccc12` [Example 2, N^1-[4-(4-Amino-1H-imidazo[4,5-c]quinolin-1-yl)butyl]-5-(dimethylamino)-1-naphthalenesulfonamide], for which the melting point fell in the range of 200 to 201 °C. In addition, in data set [1], the minimal effective concentration is more than 30 µM. In addition, the minimal effective concentration in the data set with interferon (α) (Homo sapiens, PBMC) is more than 30 µM.

Turning to `COc1ccc(Cc2nc3c(N)nc4ccccc4c3n2CCCCNS(C)(=O)=O)cc1` [Example 12, N-[4-(4-Amino-2-(4-methoxybenzyl)-1H-imidazo[4,5-c]quinolin-1-yl]butyl]methanesulfonamide], the melting point was 78.1 to 79.5 °C.

In turn, `CCCCc1nc2c(N)nc3ccccc3c2n1CCCCNS(=O)(=O)c1ccc(N)cc1` (as salt: hydrochloride) showed a melting point of 203.1 to 205 °C.

As for `CCCCc1nc2c(N)nc3ccccc3c2n1CCCCNS(=O)(=O)c1cccc([N+](=O)[O-])c1` (as salt: hydrochloride) [Example 7, N^1-[4-(4-Amino-2-butyl-1H-imidazo[4,5-c]quinolin-1-yl)butyl]-3-nitro-1-benzenesulfonamide Hydrochloride], the melting point was in the range of 176 to 178.2 °C.

For the compound `CCCCc1nc2c(N)nc3ccccc3c2n1CCCCNS(=O)(=O)c1ccccc1` [Example 5, N^1-[4-(4-Amino-2-butyl-1H-imidazo [4,5-c]quinolin-1-yl)butyl]-1-benzenesulfonamide], the melting point was in the range of 75.5 to 79 °C.

`CCCCc1nc2c(N)nc3ccccc3c2n1CCCCNS(=O)(=O)c1cccc2c(N(C)C)cccc12` [Example 1, N^1-[4-(4-Amino-2-butyl-1H-imidazo[4,5-c]quinolin-1-yl)butyl]-5-(dimethylamino)-1-naphthalenesulfonamide] returned a melting point of 223 to 224 °C. For the same compound, the minimal effective concentration in data set [1] amounted to 3.33 µM. The minimal effective concentration with interferon (α) (Homo sapiens, PBMC) worked out at 0.12 µM.

In the case of `CCCCc1nc2c(N)nc3ccccc3c2n1CCCCNS(=O)(=O)Cc1ccccc1` [Example 4, N-[4-(4-Amino-2-butyl-1H-imidazo[4,5-c]quinolin-1-yl)butyl]phenylmethanesulfonainide], the melting point is 197 to 199.5 °C.

As for `CCCCc1nc2c(N)nc3ccccc3c2n1CCCCNS(=O)(=O)c1cccs1` [Example 3, N^2-[4-(4-Amino-2-butyl-1H-imidazo[4,5-c]quinolin-1-yl)butyl]-2-thiophenesulfonamide], the melting point fell in the range of 137.5 to 141.5 °C. The minimal effective concentration in the data set on interferon (α) is reported as 0.01 µM.

The compound `COCCc1nc2c(N)nc3c(c2n1CCCCNS(=O)(=O)c1ccc(F)cc1)CCCC3` [Example 14, N^1-{4-[4-Amino-2-(2-methoxyethyl)-6,7,8,9-tetrahydro-1H-imidazo[4,5-c]quinolin-1-yl]butyl}-4-fluoro-1-benzenesulfonamide] came in with a melting point of 191 to 193 °C.

As for `CS(=O)(=O)NCCCCn1c(-c2ccccc2)nc2c(N)nc3ccccc3c21` [Example 16, N-[4-(4-Amino-2-phenyl-1H-imidazo[4,5-c]quinolin-1-yl)butyl]methanesulfonamide], the melting point lay in the range of 234 to 235 °C.

With `Nc1nc2ccccc2c2c1nc(-c1ccccc1)n2CCCCNS(=O)(=O)c1ccc(F)cc1` [Example 15, N-[4-(4-Amino-2-phenyl-1H-imidazo[4,5-c]quinolin-1-yl)butyl]-4-fluoro-1-benzenesulfonamide], the melting point was 214 to 216 °C.

In the case of `CCCCc1nc2c(N)nc3ccccc3c2n1CCCCNS(=O)(=O)c1ccc([N+](=O)[O-])cc1` (as salt: hydrochloride) [Example 9, N^1-[4-(4-Amino-2-butyl-1H-imidazo[4,5-c]quinolin-1-yl)butyl]-4-nitro-1-benzenesulfonamide Hydrochloride], the melting point was 96 °C (dec.).

Regarding `CCCCc1nc2c(N)nc3ccccc3c2n1CCCCNS(=O)(=O)c1ccccc1OC(F)(F)F` [Example 91], the minimal effective concentration in data set [1] was determined as 1 µM; in the data set on interferon (α) (Homo sapiens, PBMC) it was 0.01 µM.

For `COCCc1nc2c(N)nc3c(c2n1CCCCNS(=O)(=O)Cc1ccccc1)CCCC3` [Example 211], the minimal effective concentration in data set [1] stood at 1 µM; in the data set on interferon (α) (Homo sapiens, PBMC) it was 0.0001 µM.
